From US7728043B2, “Methods for treatment of beta-amyloid protein-induced ocular disease” (priority 1999, dated 2010)
“Also recorded” adds a separate entry of the source.

Assays:
PC12 cells = experiment: MTT reduction assay, βA peptide-induced toxicity, PC12 cells; type: cell-based, rat
Protocol: (§1) The degree of βA insult was measured by 3-[4,5-dimethylthiazol-2-yl]-2,5-diphenyltetrazolium bromide (MTT) reduction assay. […] The detection of cell growth or cell death can be determined by observing the conversion of MTT to the colored product, MTT formazan, the concentration of which can be measured […] at 550 nm.
(§2) Cells were incubated in MTT solution (5 mg/ml) at 37° C. for 2 hours. During this time, cells were observed under a microscope every 15 min. Cells were incubated in Lysing buffer (100 μl) overnight at 37° C. Colorimetric determination of MTT reduction was made at 550 nm.
(§3) PC12 rat pheochromocytoma and IMR32 human neuroblastoma cells were obtained from the American Type Culture Collection (ATCC). HUVEC normal umbilical human vein endothelial cells were obtained from Clonetics (San Diego, Calif.). Cells were routinely cultured on a tissue culture plate (Corning, N.Y., N.Y.). PC12 cells were grown in high glucose Dulbecco's Modified Eagle Medium (DMEM), 10% horse serum, 5% fetal calf serum, and 1% penicillin/streptomycin. IMR32 cells were grown in 90% DMEM and 10% fetal calf serum with 1% penicillin/streptomycin. HUVEC cells were grown in EGM-2 Bullet Kit (Clonetics, San Diego, Calif.).
PC12 cells were cultured routinely on polystyrene-coated Corning tissue culture plates. […] The 96-well plates were coated with rat tail collagen (Boehringer Mannheim) in order to promote uniform PC12 cell attachment and growth.

IMR32 cells = experiment: MTT reduction assay, βA peptide-induced toxicity, IMR32 cells; type: cell-based, human
Protocol: as §1, §2, §3

HUVEC cells = experiment: MTT reduction assay, βA peptide-induced toxicity, HUVEC cells; type: cell-based, human; settings: Table 1, turmeric-derived natural product compounds
Protocol: as §1, §2, §3

[1] = Antioxidant assay, scavenging of DPPH free radicals; settings: for Antioxidant activity (DPPH free radical scavenging), in words: optical density change of DPPH radicals at 515 nm
Protocol: Kim et al., Neurosci Lett 303, 57 (2001) and Barik et al., Free Radic Biol Med 39, 811 (2005).
Using an antioxidant assay, the antioxidant potency of the compounds of the invention was evaluated. 1,1-Diphenyl-2-picrylhydrazyl (DPPH) is known to generate stable free radicals in aqueous and ethanolic solutions. The ability of the compounds of the invention to scavenge these free radicals was measured by observing the optical density change of DPPH radicals at 515 nm. Kim et al., Neurosci Lett 303, 57 (2001) and Barik et al., Free Radic Biol Med 39, 811 (2005).
The samples were prepared in various concentrations (200, 20, 2.0, and 0.2 μg/ml) by serial dilution of a stock solution (5 mg/ml) and were tested by the following procedure. Reaction mixtures containing test compounds (dissolved in DMSO) and 300 μM DPPH ethanolic solution in 96-well microtiter plates were incubated at 37° C. for 30 min. and absorbance was measured at 515 nm. Percent inhibition by sample treatment was determined by comparison with a DMSO-treated […] control group. IC50 values were determined from percent inhibition by sample. IC50 values denote the concentration of the tested compound that was required to scavenge 50% of the DPPH free radicals.

[2] = tested on: primary cortical rat neuronal cells; experiment: Protection of primary cortical neuronal cells against βA peptide (1-42) insult; type: cell-based; settings: compound at 5 μg/ml; βA peptide (1-42) 10 μg/ml
Protocol: as §2
Primary cortical rat neuronal cells were obtained in the following manner. Dissociated primary neuronal cell cultures were established from 18-day-old Sprague-Dawley rat fetuses. The pups were delivered by caesarean section while the dam was anesthetized with ether. Hippocampal tissue from embryonic day 18 Sprague-Dawley rat pups was dissected and then rinsed in cold Ca^2+/Mg^2+-free Hank's balanced salt solution supplemented with 20 mM HEPES, 4.2 mM sodium bicarbonate, 1 mM pyruvate, and 3 mg/ml bovine serum albumin (BSA). Following gentle trituration of the tissue with a constricted pipette in cold buffer, two volumes of 10% fetal bovine serum (FBS) in DMEM were added to the suspension. After the suspension settled for 2 minutes, the supernatant was collected and centrifuged for 2 min. at 200×g. The cell pellets were resuspended in serum-free DMEM (pH 7.3), supplemented with 2.4 mg/ml BSA and a modification of Brewer's […] defined components (with 250 nM vitamin B12 and without catalase, glutathione, and superoxide dismutase). Cells were plated at a density of 15,000 cells/cm^2 and grown at 37° C. After 24 hours of incubation to allow cell attachment, the serum-containing medium was replaced by defined medium with DMEM/F12 containing bovine transferrin (100 μg/ml), bovine insulin (5 μg/ml), putrescine (0.1 mM), progesterone (10 nM), sodium selenite (30 nM), sodium pyruvate (1 mM), and potassium bicarbonate (15 mM). Cells maintained for extended periods of time were fed twice a week by replacing ⅓ of the medium with fresh medium.

[3] = tested on: cells treated with βA peptide; experiment: Protection of cells from βA peptide insult, statements in words (MTT assay, cells not singled out); type: cell-based; settings: for Protection of cells from βA peptide-induced toxicity, in words: MTT reduction assay, PC12, IMR32, HUVEC cells where named in the sentence; for Microscopic analysis of βA peptide treated cells (MTT formazan granules in the cytosole): synthesized curcuminoid compounds, compared with positive and negative control
Protocol: as §1, §2

[4] = Partition coefficient between water and octane alcohol (log P); type: physicochemical
Protocol: According to this example, the ability of the compounds of the invention to pass through the blood brain barrier was measured. The ability of compounds to cross the blood brain barrier is represented by the log of the partition coefficient (P) of a molecule of the invention between water and octane alcohol. […] Accordingly, the octane alcohol fraction contained more than 1000 times as much of the compounds as the water fraction. […] See Hau et al., Regul Toxicol Pharmacol 35, 273 (2002) and Salminen et al., J Pharm Biomed Anal 15, 469 (1997).

[5] = Table 1, turmeric-derived natural product compounds
[6] = Table 1, turmeric-derived natural product compounds, concentration for 50% cell viability
[7] = Table 1, turmeric-derived natural product compounds, scavenging 50% of DPPH free radicals
[8] = Table 2, synthesized curcuminoids
[9] = Table 2, synthesized curcuminoids, DPPH

Row | Antioxidant IC50 [1, 7] [µg/mL] | Antioxidant IC50 [1, 9] [µg/mL] | logP [4] | Structure (SMILES) | Anti-βA peptide(1-42) ED50 PC12 (PC12 cells; [5]) [µg/mL] | Anti-βA peptide(25-35) ED50 PC12 (PC12 cells; [6]) [µg/mL] | Anti-βA peptide(25-35) ED50 IMR32 (IMR32 cells; [5]) [µg/mL] | Anti-βA peptide(1-42) ED50 HUVEC (HUVEC cells) [µg/mL] | Anti-βA peptide(25-35) ED50 HUVEC (HUVEC cells) [µg/mL] | Antioxidant activity (DPPH free radical scavenging), in words [1] | Protection of primary cortical neuronal cells against βA peptide (1-42) insult [2] | Protection of cells from βA peptide-induced toxicity, in words [3] | Anti-βA peptide(1-42) ED50 PC12 (PC12 cells; [8]) [µg/mL] | Anti-βA peptide(25-35) ED50 PC12 (PC12 cells; [8]) [µg/mL] | Anti-βA peptide(1-42) ED50 IMR32 (IMR32 cells; [8]) [µg/mL] | Anti-βA peptide(25-35) ED50 IMR32 (IMR32 cells; [8]) [µg/mL] | Microscopic analysis of βA peptide treated cells (MTT formazan granules in the cytosole) [3]
1 | >200 | >200 | – | O=C(C=Cc1ccc(O)cc1)CC(=O)CCc1ccc(O)cc1 [Compound 4, 1,7-bis(4-hydroxyphenyl)-1-heptene-3,5-dione] | 1.0 | 0.5 | 1.2 | 1.0 | 0.8 | – | protected | protected; also recorded: best protection | 1.0 | 0.5 | 2.0 | 1.5 | effectively protect
2 | >200 | – | – | O=C(C=C(O)C=Cc1ccc(O)c(O)c1)CCc1ccc(O)cc1 [Compound 5] | 3.0 | 2.5 | 1.5 | 1.5 | 2.0 | – | protected | protected | – | – | – | – | –
3 | >200 | – | – | COc1cc(/C=C/C(=O)COC(=O)/C=C/c2ccc(O)c(OC)c2)ccc1O [Compound 6, 4″-(3′″-methoxy-4′″-hydroxyphenyl)-2″-oxo-3″-enebutanyl 3-(3′-methoxy-4′-hydroxyphenyl)propenoate] | 2.0 | 1.0 | 1.0 | 1.0 | 1.5 | – | protected | protected | – | – | – | – | –

Second part, the compound before the results:

Row | Structure (SMILES) | Antioxidant IC50 [1, 7] [µg/mL] | Antioxidant IC50 [1, 9] [µg/mL] | logP [4] | Anti-βA peptide(1-42) ED50 PC12 (PC12 cells; [5]) [µg/mL] | Anti-βA peptide(25-35) ED50 PC12 (PC12 cells; [6]) [µg/mL] | Anti-βA peptide(25-35) ED50 IMR32 (IMR32 cells; [5]) [µg/mL] | Anti-βA peptide(1-42) ED50 HUVEC (HUVEC cells) [µg/mL] | Anti-βA peptide(25-35) ED50 HUVEC (HUVEC cells) [µg/mL] | Antioxidant activity (DPPH free radical scavenging), in words [1] | Protection of primary cortical neuronal cells against βA peptide (1-42) insult [2] | Protection of cells from βA peptide-induced toxicity, in words [3] | Anti-βA peptide(1-42) ED50 PC12 (PC12 cells; [8]) [µg/mL] | Anti-βA peptide(25-35) ED50 PC12 (PC12 cells; [8]) [µg/mL] | Anti-βA peptide(1-42) ED50 IMR32 (IMR32 cells; [8]) [µg/mL] | Anti-βA peptide(25-35) ED50 IMR32 (IMR32 cells; [8]) [µg/mL] | Microscopic analysis of βA peptide treated cells (MTT formazan granules in the cytosole) [3]
4 | COc1cc(C=CC(=O)CC(=O)C=Cc2ccc(O)cc2)ccc1O [Compound 2, 1-(4-hydroxy-3-methoxyphenyl)-7-(4-hydroxyphenyl)-1,6-heptadiene-3,5-dione] | 36.2 | – | – | 5.0 | 4.0 | 4.0 | 5.0 | 4.5 | strong antioxidant activity | protected | protected | – | – | – | – | –
5 | O=C(C=Cc1ccc(O)cc1)CC(=O)C=Cc1ccc(O)cc1 [Compound 3, 1,7-bis(4-hydroxyphenyl)-1,6-heptadiene-3,5-dione] | >200 | 32.6 | 3.1 | 3.5 | 2.0 | 2.5 | 2.0 | 2.4 | significant antioxidant activity | protected | protected | 4.5 | 3.0 | 3.5 | 3.0 | effectively protect
